Reference: patent US20030007941A1, “Method of treating hair loss using thyromimetic compounds” (priority 2001, published 2003)

Columns and labels:
C3H/HeN mice = assay: Telogen Conversion Assay (topical hair growth); type: in vivo; conditions: for Hair Growth at LDO (% Animals): animals with hair growth score of 1 or greater; for Hair Growth in 50% of Animals: day when 50% or greater had score of 1 or greater
Description: The Telogen Conversion Assay measures the potential of a compound (hereinafter referred to as the “test compound”) to convert mice in the resting stage of the hair growth cycle (“telogen”) to the growth stage of the hair growth cycle (“anagen”). Without intending to be limited by theory, there are three principal phases of the hair growth cycle: anagen, catagen and telogen. The telogen period in C3H/HeN mice lasts from approximately 40 days of age until about 75 days of age, when hair growth is synchronized. It is believed that after 75 days of age, hair growth is no longer synchronized. For example, about 40 day-old mice with dark fur (brown or black) may be used in hair growth experiments; melanogenesis occurs in these animals along with hair (fur) growth and the topical application of hair growth inducers may be evaluated in these animals.
The Telogen Conversion Assay described below is used to screen test compounds for potential hair growth by measuring melanogenesis:
Objectives: To evaluate and compare the effect of test compounds applied topically on C3H/HeN mice for hair growth.
Animals: Female C3H/HeN mice, six and a half weeks of age.
Route and Duration of Treatment: Topical dosing with test compounds on mice is scheduled once or twice daily for five (5) consecutive days for one week to four weeks. Topical dosing begins on Day 0 by applying test compound or vehicle in volumes of 20 μl which keeps the solubilized test compound to a prescribed area of approximately one (1) square centimeter (1 cm^2) in the center of the clipped lower back of each mouse.
Study Design: Only mice with pink skin or in the telogen phase of the hair growth cycle are selected for inclusion in the study. On Friday, before the experiment starts, the mice are weighed and then anesthetized with isoflurane in a mouse chamber. The hair over the lower dorsal area is clipped with a Wahl clipper using a #40 blade. Care is taken to avoid abrading the skin surface. On the Monday (Day 0) following hair clipping, the mice are again anesthetized with isoflurane and photographed with a digital camera. After digital photographs are taken, the mice receive 20 μl of the respective test compounds applied with an automated pipette to the clipped area between the hind legs. The test compound for each treatment group is evenly spread with the pipette tip to an area approximately 1 square centimeter (1 cm^2), and applied to the same site on subsequent dosing days. All topical treatments are administered as described in the Route and Duration of Treatment Section.
Observations of the test sites are made three (3) times a week on Monday, Wednesday, and Friday, with observations beginning immediately after the first week of treatment and looking for changes in skin pigment, hair growth, and signs of irritation such as scaling, peeling, scabbing and erythema. Digital photographs are taken on Days 0, 10, 15, 31 and 35 (end of the study) for the dosing groups. Body weights of mice are taken on the first and last days of observation for each test group.
The scoring system for hair growth is described below:
0=No hair growth/pigment change (pink skin);
1=Gray/dark skin color (no visible hair growth);
2=Sparse/diffuse terminal hair growth;
3=dense, normal hair growth.
ph 2=peripheral hair growth with a score of 2
ph 3=peripheral hair growth with a score of 3
ldsh=long, diffuse/scattered hair growth in the dosing site
Scaling, peeling, scabbing, or erythema are scored as present (+) and absent (−). Any other local (e.g. test compound precipitation) or systemic abnormalities and aberrant hair growth are described on raw data scoring sheet.
Table 1 is a summary table of the results of the evaluation of five different test compounds in the Telogen Conversion Assay described above. Animals were observed and scored for hair growth using the scoring system for hair growth described above.

AGA mouse = conditions: topical, model for androgen dependent hair loss; cited from earlier work
mice and rats = conditions: topical; cited from earlier work
[1] = Experiment 1, 0.001% topical, 1 wk, LDO day 30
[2] = Experiment 1, 0.01% topical, 1 wk, LDO day 30
[3] = Experiment 1, 0.1% topical, 1 wk, LDO day 30
[4] = Experiment 1, 0.3% topical, 1 wk, LDO day 30
[5] = Experiment 2, 0.001% topical, 1 wk, LDO day 35
[6] = Experiment 2, 0.01% topical, 1 wk, LDO day 35
[7] = Experiment 2, 0.1% topical, 1 wk, LDO day 35
[8] = Experiment 2, 0.3% topical, 1 wk, LDO day 35
[9] = Experiment 3, 0.1% topical, 1 wk, LDO day 35
[10] = Experiment 3, 0.1% topical, 2 wks, LDO day 35

## O=C(NC1CCCCC1)c1cc(Oc2c(Cl)cc(-n3ncc(=O)[nH]c3=O)cc2Cl)ccc1O [Cpd #1, N-Cyclohexyl-5-[2,6-dichloro-4-(3,5-dioxo-4,5-dihydro-3H-[1,2,4]triazin-2-yl)-phenoxy]-2-hydroxy-benzamide]
C3H/HeN mice; [1]
  Hair Growth at LDO (% Animals): 22%
  Hair Growth in 50% of Animals: >30 days
C3H/HeN mice; [2]
  Hair Growth at LDO (% Animals): 75%
  Hair Growth in 50% of Animals: 14 days
C3H/HeN mice; [3]
  Hair Growth at LDO (% Animals): 100%
  Hair Growth in 50% of Animals: 7 days
C3H/HeN mice; [4]
  Hair Growth at LDO (% Animals): 100%
  Hair Growth in 50% of Animals: 9 days
C3H/HeN mice; [5]
  Hair Growth at LDO (% Animals): 50%
  Hair Growth in 50% of Animals: 18 days
C3H/HeN mice; [6]
  Hair Growth at LDO (% Animals): 100%
  Hair Growth in 50% of Animals: 14 days
C3H/HeN mice; [7]
  Hair Growth at LDO (% Animals): 100%
  Hair Growth in 50% of Animals: 7 days
C3H/HeN mice; [8]
  Hair Growth at LDO (% Animals): 100%
  Hair Growth in 50% of Animals: 9 days
C3H/HeN mice; [9]
  Hair Growth at LDO (% Animals): 100%
  Hair Growth in 50% of Animals: 7 days
C3H/HeN mice; [10]
  Hair Growth at LDO (% Animals): 100%
  Hair Growth in 50% of Animals: 7 days

## O=C(c1cc(Oc2c(Cl)cc(-n3ncc(=O)[nH]c3=O)cc2Cl)ccc1O)N1CCc2ccccc2C1 [Cpd #2, 2-{3,5-Dichloro-4-[3-(3,4-dihydro-1H-isoquinoline-2-carbonyl)-4-hydroxy-phenoxy]-phenyl}-2H-[1,2,4]triazine-3,5-dione]
C3H/HeN mice; [10]
  Hair Growth at LDO (% Animals): 100%
  Hair Growth in 50% of Animals: 11 days

## Cc1cc(NC(=O)C(=O)O)cc(C)c1Oc1ccc(O)c2c1CCC2 [Cpd #3, N-[4-(7-hydroxy-indan-4-yloxy)-3,5-dimethyl-phenyl]-oxamic acid]
C3H/HeN mice; [10]
  Hair Growth at LDO (% Animals): 20%
  Hair Growth in 50% of Animals: >35 days

## Cc1cc(-n2ncc(=O)[nH]c2=O)cc(C)c1Oc1ccc(O)c(Cc2ccc(F)cc2)c1 [Cpd #4, 2-{4-[3-(4-Fluoro-benzyl)-4-hydroxy-phenoxy]-3,5-dimethyl-phenyl}-2H-[1,2,4]triazine-3,5-dione]
C3H/HeN mice; [10]
  Hair Growth at LDO (% Animals): 100%
  Hair Growth in 50% of Animals: 9 days

## O=C(c1ccc(F)cc1)c1cc(Oc2c(Cl)cc(-n3ncc(=O)[nH]c3=O)cc2Cl)ccc1O [Cpd #5, 2-{3,5-Dichloro-4-[3-(4-fluoro-benzoyl)-4-hydroxy-phenoxy]-phenyl}-2H-[1,2,4]triazine-3,5-dione]
C3H/HeN mice; [10]
  Hair Growth at LDO (% Animals): 100%
  Hair Growth in 50% of Animals: 9 days

## N[C@@H](Cc1cc(I)c(Oc2ccc(O)c(I)c2)c(I)c1)C(=O)O [T3, 3,5,3′-triiodo-L-thyronine]
AGA mouse
  effect on testosterone induced alopecia: inhibitory effect
Mice and rats
  effect on epidermal proliferation, dermal thickening and hair growth: stimulates epidermal proloferation, dermal thickening and hair growth
